Laboratory results from US12428422B2, “Purine derivatives as SIK-3 inhibitors” (RHIZEN PHARMACEUTICALS AG, priority 2020, dated 2025).

Key:
[1] = system: MV-4-11 cell lines; assay: MTT cell growth inhibition, single agent or combination, MV-4-11; assay type: cell-based; settings: combined with azacytidine or ventoclax, 72 hrs
Protocol: (§1) Assay 4: Compound M1 as a Single Agent or in Combination with Azacytidine, or Venetoclax was Determined in the AML Lines: THP-1, U937, and MV-4-11.
(§2) Day 0 • The cells were pelleted and counted. • Cells were plated at desired density (100 μl/well) in complete media in a 96-well plate in triplicates. A column for Day “0” reading was also seeded (18-20 hrs after initial plating and before addition of the inhibitors) • Plates were incubated at 37° C. and 5% CO2. Day 1 • 10 μl of MTT (5 mg/ml) were added to the column designated for Day “0”. It was mixed well and incubated at 37° C. and 5% CO2 for 3.5 h. Cells were pelleted down at 4000 rpm for 10 minutes. • Media was aspirated out and 150 μl of DMSO were added to the cells and mixed by pipetting to dissolve the crystals • Plate was read at A560 nm and A640 nm. […] Crystals were dissolved by repeated pipetting. • The plate was read at A560 nm and A640 nm. […]
(§3) Reference absorbance values were subtracted from test absorbance values. Day 0 values were subtracted from final day absorbance values for determining cell growth. Percent cell growth inhibitions were calculated.

[2] = system: TNFα mRNA; assay: TNFα mRNA expression in LPS-stimulated mouse bone marrow derived macrophages (real-time PCR); assay type: cell-based; settings: LPS (1 μg/ml) stimulated mouse BMDM; 1 μM Compound M1 vs 1 μM dasatinib (FIG. 2A)
Protocol: (§4) Assay 2: Evaluation of mRNA Expression Levels of IL-10, TNFα, and Arginase-1 in LPS-Stimulated (1 μg/ml) Mouse Bone Marrow Derived Macrophages (BMDM).
(§5) Mouse-Bone Marrow Cell Isolation
(§6) • Femur bones from healthy mice were collected taking all aseptic precautions. • Bones were severed proximal to each joint using sterile scissors. • A 10 ml syringe with 25-G needle was filled with cold sterile wash medium (DMEM/F12 medium+10% FBS (fetal bovine serum)+1% Penicillin-streptomycin). • The needle was inserted into bone marrow cavity of femur and the cavity was flushed with 2-5 mL of wash medium, until the bone cavity appeared white. • Wash medium was collected in a 50 mL tube and centrifuged at 500×g for 10 minutes at room temperature. • Cells were resuspended in DMEM/F12 medium and cell count was taken. […]
(§7) Fold change in the mRNA expression was calculated by 2^−ΔΔCt method and data was plotted using GraphPad Prism.

[3] = system: MCF-7 cell lines; assay: MTT cell growth inhibition, combination with taxol, MCF-7; assay type: cell-based; settings: combined with taxol, 72 hrs
Protocol: (§8) Assay 6: Combination of Compound M1 with Standard Agents in Different Cell Lines
(§9) Day 0 • The cells were pelleted and counted. • Cells were plated at desired density (100 μl/well) in complete media in a 96-well plate in triplicates. A column for Day “0” reading was also seeded. (18-20 hrs after initial plating and before addition of the inhibitors) • Plates were incubated at 37° C. and 5% CO2. Day 1 • 10 μl of MTT (5 mg/ml) were added to the column designated for Day “0”. It was mixed well and incubated at 37° C. and 5% CO2 for 3.5 h. Cells were pelleted down at 4000 rpm for 10 minutes. • Media was aspirated out and 150 μl of DMSO were added to the cells and mixed by pipetting to dissolve the crystals • The plate was read at A560 nm and A640 nm. Day 2 • A series of dilutions of the inhibitors were initially made in 100% DMSO and further diluted in growth medium. • Cells were treated with either single agent of DMSO, compound M1, taxol, and a combination of compound M1 and taxol (MDA-MB-231, MCF-7, ZR.75.1 and SK-OV-3). […] Crystals were dissolved by repeated pipetting. • The plate was read at A560 nm and A640 nm. […]
(§10) Reference absorbance values were subtracted from test absorbance values. Day 0 values were subtracted from final day absorbance values for determining cell growth. % Cell growth inhibitions were calculated.

[4] = system: mouse IL-10 mRNA; assay: IL-10 mRNA expression in LPS-stimulated mouse bone marrow derived macrophages (real-time PCR); assay type: cell-based; settings: LPS (1 μg/ml) stimulated mouse BMDM; 1 μM Compound M1 vs 1 μM dasatinib (FIG. 2C)
Protocol: as §4, §5, §6, §7

[5] = system: SK-OV-3 cell lines; assay: MTT cell growth inhibition, combination with taxol, SK-OV-3; assay type: cell-based; settings: combined with taxol, 72 hrs
Protocol: as §8, §9, §10

[6] = target: y isoform of PI3K (Homo sapiens, UniProt P48736); assay: Activity against PI3K gamma isoform (printed "y" / "7"); settings: independently synthesized compound
[7] = system: U937 cell lines; assay: MTT cell growth inhibition, single agent or combination, U937; assay type: cell-based; settings: combined with azacytidine or ventoclax, 72 hrs
Protocol: as §1, §2, §3

Sequence of y isoform of PI3K (P48736 whole entry, canonical isoform): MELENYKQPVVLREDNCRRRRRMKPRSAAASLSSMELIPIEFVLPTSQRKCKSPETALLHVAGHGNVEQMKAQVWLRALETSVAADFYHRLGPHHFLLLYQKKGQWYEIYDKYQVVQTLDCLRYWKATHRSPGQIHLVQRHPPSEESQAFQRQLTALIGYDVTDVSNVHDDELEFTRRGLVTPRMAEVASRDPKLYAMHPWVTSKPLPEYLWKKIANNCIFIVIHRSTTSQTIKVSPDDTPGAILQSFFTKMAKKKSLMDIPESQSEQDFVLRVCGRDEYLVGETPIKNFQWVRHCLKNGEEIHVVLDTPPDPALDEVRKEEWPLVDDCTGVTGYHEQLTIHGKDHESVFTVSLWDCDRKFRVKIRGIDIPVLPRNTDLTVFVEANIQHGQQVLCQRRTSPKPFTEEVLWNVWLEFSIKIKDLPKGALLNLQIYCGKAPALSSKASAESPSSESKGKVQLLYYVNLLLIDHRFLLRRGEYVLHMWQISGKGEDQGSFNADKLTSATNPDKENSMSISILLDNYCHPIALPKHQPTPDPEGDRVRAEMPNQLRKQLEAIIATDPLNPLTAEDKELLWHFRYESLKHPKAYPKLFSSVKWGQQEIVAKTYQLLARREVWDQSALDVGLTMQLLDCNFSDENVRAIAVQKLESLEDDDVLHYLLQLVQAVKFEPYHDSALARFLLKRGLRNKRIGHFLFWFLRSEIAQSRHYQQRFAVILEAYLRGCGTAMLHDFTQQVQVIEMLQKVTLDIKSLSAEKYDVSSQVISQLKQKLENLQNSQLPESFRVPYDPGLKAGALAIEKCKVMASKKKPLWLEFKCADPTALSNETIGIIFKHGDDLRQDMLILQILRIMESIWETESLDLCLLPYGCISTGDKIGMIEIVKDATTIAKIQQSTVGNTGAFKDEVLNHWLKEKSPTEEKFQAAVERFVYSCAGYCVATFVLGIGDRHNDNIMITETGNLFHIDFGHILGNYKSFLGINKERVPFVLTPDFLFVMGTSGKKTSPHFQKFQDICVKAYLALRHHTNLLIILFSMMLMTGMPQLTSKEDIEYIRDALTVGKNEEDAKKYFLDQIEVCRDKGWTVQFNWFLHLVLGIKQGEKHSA

## CC[C@H](Nc1ncnc2[nH]c(O)nc12)c1oc2ccccc2c(=O)c1-c1cccc(F)c1 [Compound M1, (S)-3-(3-fluorophenyl)-2-(1-((8-hydroxy-9H-purin-6-yl)amino)propyl)-4H-chromen-4-one]
[1]
  cell growth inhibition in combination: synergistic activity
[2]
  TNFα mRNA expression, potency relative to dasatinib: more potent than dasatinib
[3]
  cell growth inhibition in combination: synergistic results
[4]
  mouse IL-10 mRNA expression, potency relative to dasatinib: equally potent as dasatinib
[5]
  cell growth inhibition in combination: synergistic results
[6]
  activity against the y isoform of PI3K: inactive
[7]
  cell growth inhibition in combination: synergistic activity
